Test results published in PubChem BioAssay AID1745844 (Carcinogenic Potency Database (CPDB), 2022).
Calls of active or inactive are those of the source. How the calls were made is not given here.

System: rodent lifetime carcinogenesis bioassay, tumor incidence TD50
Assay: chronic cancer bioassays in animals – CPDB, compiled studies (AID 1745844)

Compound: O=C(O)C1=NN(c2ccc(S(=O)(=O)O)cc2)C(=O)C1N=Nc1ccc(S(=O)(=O)O)cc1 (stereo unspecified)
- TD50 (mouse, strain Charles River CD1, females, in feed, site: all sites, lesion: malignant lymphoma, lymphocytic type, dosed 104 weeks, study length 104 weeks): 1430 mg/kg/day (inactive)
- carcinogen call (mouse, strain Charles River CD1, females, in feed, site: any site (literature study), lesion: benign tumor, dosed 104 weeks, study length 104 weeks): negative (inactive)
- TD50 (mouse, strain Charles River CD1, females, in feed, site: any site (literature study), lesion: malignant tumor, dosed 104 weeks, study length 104 weeks): 1560 mg/kg/day (inactive)
- carcinogen call (mouse, strain Charles River CD1, females, in feed, site: liver, lesion: hepatocellular adenocarcinoma, dosed 104 weeks, study length 104 weeks): negative (inactive)
- TD50 (mouse, strain Charles River CD1, females, in feed, site: liver, lesion: hepatocellular adenoma, dosed 104 weeks, study length 104 weeks): 200000 mg/kg/day (inactive)
- carcinogen call (mouse, strain Charles River CD1, females, in feed, site: lung, lesion: alveolar/bronchiolar adenocarcinoma, dosed 104 weeks, study length 104 weeks): negative (inactive)
- carcinogen call (mouse, strain Charles River CD1, females, in feed, site: lung, lesion: alveolar/bronchiolar adenoma, dosed 104 weeks, study length 104 weeks): negative (inactive)
- TD50 (mouse, strain Charles River CD1, males, in feed, site: all sites, lesion: malignant lymphoma, lymphocytic type, dosed 104 weeks, study length 104 weeks): 11800 mg/kg/day (inactive)
- TD50 (mouse, strain Charles River CD1, males, in feed, site: any site (literature study), lesion: benign tumor, dosed 104 weeks, study length 104 weeks): 388 mg/kg/day (inactive)
- TD50 (mouse, strain Charles River CD1, males, in feed, site: any site (literature study), lesion: malignant tumor, dosed 104 weeks, study length 104 weeks): 1810 mg/kg/day (inactive)
- TD50 (mouse, strain Charles River CD1, males, in feed, site: liver, lesion: hepatocellular adenocarcinoma, dosed 104 weeks, study length 104 weeks): 61100 mg/kg/day (inactive)
- TD50 (mouse, strain Charles River CD1, males, in feed, site: liver, lesion: hepatocellular adenoma, dosed 104 weeks, study length 104 weeks): 2150 mg/kg/day (inactive)
- carcinogen call (mouse, strain Charles River CD1, males, in feed, site: lung, lesion: alveolar/bronchiolar adenocarcinoma, dosed 104 weeks, study length 104 weeks): negative (inactive)
- TD50 (mouse, strain Charles River CD1, males, in feed, site: lung, lesion: alveolar/bronchiolar adenoma, dosed 104 weeks, study length 104 weeks): 42500 mg/kg/day (inactive)
- carcinogen call (rat, strain F344/DuCrj, females, in drinking water, site: any site (literature study), lesion: one or several types, types not named, dosed 104 weeks, study length 112 weeks): negative (inactive)
- carcinogen call (rat, strain F344/DuCrj, females, in drinking water, site: liver, lesion: neoplastic nodule, dosed 104 weeks, study length 112 weeks): negative (inactive)
- TD50 (rat, strain F344/DuCrj, females, in drinking water, site: uterus, lesion: endometrial stromal polyp, dosed 104 weeks, study length 112 weeks): 5780 mg/kg/day (inactive)
- TD50 (rat, strain F344/DuCrj, males, in drinking water, site: abdominal cavity, lesion: mesothelioma, dosed 104 weeks, study length 112 weeks): 2820 mg/kg/day (inactive)
- carcinogen call (rat, strain F344/DuCrj, males, in drinking water, site: any site (literature study), lesion: one or several types, types not named, dosed 104 weeks, study length 112 weeks): negative (inactive)
- carcinogen call (rat, strain F344/DuCrj, males, in drinking water, site: liver, lesion: hepatocellular carcinoma, dosed 104 weeks, study length 112 weeks): negative (inactive)
- carcinogen call (rat, strain F344/DuCrj, males, in drinking water, site: liver, lesion: neoplastic nodule, dosed 104 weeks, study length 112 weeks): negative (inactive)
- carcinogen call (rat, strain Not specified, females, in feed, site: any site (literature study), lesion: several types, types named in the paper, dosed 64 weeks, study length 64 weeks): negative (inactive)
- carcinogen call (rat, strain Not specified, females, in feed, site: liver, lesion: one or several types, types not named, dosed 64 weeks, study length 64 weeks): negative (inactive)
- carcinogen call (rat, strain Not specified, males, in feed, site: any site (literature study), lesion: several types, types named in the paper, dosed 64 weeks, study length 64 weeks): negative (inactive)
- carcinogen call (rat, strain Not specified, males, in feed, site: liver, lesion: one or several types, types not named, dosed 64 weeks, study length 64 weeks): negative (inactive)
- carcinogen call (rat, strain Osborne-Mendel, both sexes, in feed, site: any site (literature study), lesion: malignant tumor, dosed 104 weeks, study length 104 weeks): negative (inactive)
- carcinogen call (rat, strain Osborne-Mendel, both sexes, in feed, site: any site (literature study), lesion: several types, types named in the paper, dosed 104 weeks, study length 104 weeks): negative (inactive)
- TD50 (rat, strain Osborne-Mendel, both sexes, in feed, site: liver, lesion: adenoma, dosed 104 weeks, study length 104 weeks): 231000 mg/kg/day (inactive)

Compound: CN[C@H]1CCc2cc(OC)c(OC)c(OC)c2-c2ccc(OC)c(=O)cc21
- TD50 (rat, strain BR 46, males, i.v., site: any site (literature study), lesion: benign tumor, dosed 52 weeks, study length 104 weeks): 0.248 mg/kg/day (inactive)
- TD50 (rat, strain BR 46, males, i.v., site: any site (literature study), lesion: malignant tumor, dosed 52 weeks, study length 104 weeks): 0.129 mg/kg/day (inactive)
- TD50 (rat, strain BR 46, males, i.v., site: any site (literature study), lesion: several types, types named in the paper, dosed 52 weeks, study length 104 weeks): 0.0787 mg/kg/day (inactive)

Compound: CS(=O)(=O)c1ccc([C@@H](O)[C@@H](CO)NC(=O)C(Cl)Cl)cc1
- TD50 (rat, strain F344/DuCrj, females, in drinking water, site: any site (literature study), lesion: one or several types, types not named, dosed 104 weeks, study length 108 weeks): 43.2 mg/kg/day (inactive)
- carcinogen call (rat, strain F344/DuCrj, females, in drinking water, site: liver, lesion: one or several types, types not named, dosed 104 weeks, study length 108 weeks): negative (inactive)
- carcinogen call (rat, strain F344/DuCrj, males, in drinking water, site: any site (literature study), lesion: one or several types, types not named, dosed 104 weeks, study length 108 weeks): negative (inactive)
- TD50 (rat, strain F344/DuCrj, males, in drinking water, site: liver, lesion: hepatocellular adenoma, dosed 104 weeks, study length 108 weeks): 683 mg/kg/day (inactive)

Compound: CC[C@@H]1NC(=O)[C@@H]2[C@H](Cl)[C@H](Cl)CN2C(=O)[C@H](CO)NC(=O)C[C@H](c2ccccc2)NC(=O)[C@H](CO)NC1=O
- TD50 (mouse, strain ddNi, males, in feed, site: liver, lesion: hepatoma, dosed 160 weeks, study length 160 weeks): 99.5 mg/kg/day
- TD50 (mouse, strain ddNi, males, in feed, site: liver, lesion: liver-cell adenoma, dosed 160 weeks, study length 160 weeks): 48.6 mg/kg/day
- TD50 (mouse, strain ddNi, males, in feed, site: liver, lesion: liver-cell carcinoma, dosed 160 weeks, study length 160 weeks): 98.9 mg/kg/day
- TD50 (mouse, strain ddNi, males, in feed, site: liver, lesion: several types, types named in the paper, dosed 160 weeks, study length 160 weeks): 23.6 mg/kg/day

Compound: O=S1(=O)N=C(O)c2ccccc21
- carcinogen call (rat, strain Fischer 344, males, in feed, site: forestomach, lesion: papilloma, dosed 72 weeks, study length 73 weeks): negative (inactive)
- carcinogen call (rat, strain Fischer 344, males, in feed, site: urinary bladder, lesion: carcinoma, dosed 72 weeks, study length 73 weeks): negative (inactive)

Compound: CC(=O)NNc1ccc(CO)cc1
- TD50 (mouse, strain Swiss albino, females, in drinking water, site: blood vessels, lesion: several types, types named in the paper, dosed 115 weeks, study length 115 weeks): 287 mg/kg/day
- TD50 (mouse, strain Swiss albino, females, in drinking water, site: lung, lesion: several types, types named in the paper, dosed 115 weeks, study length 115 weeks): 329 mg/kg/day
- TD50 (mouse, strain Swiss albino, males, in drinking water, site: blood vessels, lesion: several types, types named in the paper, dosed 115 weeks, study length 115 weeks): 252 mg/kg/day
- carcinogen call (mouse, strain Swiss albino, males, in drinking water, site: liver, lesion: hepatoma, dosed 115 weeks, study length 115 weeks): negative (inactive)
- TD50 (mouse, strain Swiss albino, males, in drinking water, site: lung, lesion: several types, types named in the paper, dosed 115 weeks, study length 115 weeks): 208 mg/kg/day

Compound: C=CCNNCC=C
- carcinogen call (mouse, strain Swiss albino, females, in drinking water, site: liver, lesion: angioma, dosed 83 weeks, study length 83 weeks): negative (inactive)
- carcinogen call (mouse, strain Swiss albino, females, in drinking water, site: liver, lesion: angiosarcoma, dosed 83 weeks, study length 83 weeks): negative (inactive)
- TD50 (mouse, strain Swiss albino, females, in drinking water, site: liver, lesion: hepatoma, dosed 83 weeks, study length 83 weeks): 409 mg/kg/day (inactive)
- TD50 (mouse, strain Swiss albino, females, in drinking water, site: lung, lesion: adenocarcinoma, dosed 83 weeks, study length 83 weeks): 78.3 mg/kg/day
- TD50 (mouse, strain Swiss albino, females, in drinking water, site: lung, lesion: adenoma, dosed 83 weeks, study length 83 weeks): 47.9 mg/kg/day
- TD50 (mouse, strain Swiss albino, females, in drinking water, site: lung, lesion: several types, types named in the paper, dosed 83 weeks, study length 83 weeks): 33.8 mg/kg/day
- carcinogen call (mouse, strain Swiss albino, males, in drinking water, site: liver, lesion: angioma, dosed 82 weeks, study length 82 weeks): negative (inactive)
- TD50 (mouse, strain Swiss albino, males, in drinking water, site: lung, lesion: adenocarcinoma, dosed 82 weeks, study length 82 weeks): 60 mg/kg/day
- TD50 (mouse, strain Swiss albino, males, in drinking water, site: lung, lesion: adenoma, dosed 82 weeks, study length 82 weeks): 35.4 mg/kg/day
- TD50 (mouse, strain Swiss albino, males, in drinking water, site: lung, lesion: several types, types named in the paper, dosed 82 weeks, study length 82 weeks): 33.9 mg/kg/day

Compound: C=CCOc1ccc(CC(=O)O)cc1Cl
- carcinogen call (rat, strain Wistar, females, in feed, site: any site (literature study), lesion: several types, types named in the paper, dosed 104 weeks, study length 104 weeks): negative (inactive)
- carcinogen call (rat, strain Wistar, females, in feed, site: liver, lesion: several types, types named in the paper, dosed 104 weeks, study length 104 weeks): negative (inactive)
- TD50 (rat, strain Wistar, females, in feed, site: ovary, lesion: several types, types named in the paper, dosed 104 weeks, study length 104 weeks): 390 mg/kg/day (inactive)
- carcinogen call (rat, strain Wistar, males, in feed, site: any site (literature study), lesion: several types, types named in the paper, dosed 104 weeks, study length 104 weeks): negative (inactive)
- carcinogen call (rat, strain Wistar, males, in feed, site: liver, lesion: several types, types named in the paper, dosed 104 weeks, study length 104 weeks): negative (inactive)
